Data published in patent US7276508B2, “Indole derivatives useful for the treatment of CNS disorders” (H. Lundbeck A/S, priority 2000, dated 2007).

Experiments:
[1] = molecular target: T1, D4 receptor (Homo sapiens, UniProt P21917); details: various in vitro efficacy assays; cited from earlier work
T1 sequence (P21917 1-419): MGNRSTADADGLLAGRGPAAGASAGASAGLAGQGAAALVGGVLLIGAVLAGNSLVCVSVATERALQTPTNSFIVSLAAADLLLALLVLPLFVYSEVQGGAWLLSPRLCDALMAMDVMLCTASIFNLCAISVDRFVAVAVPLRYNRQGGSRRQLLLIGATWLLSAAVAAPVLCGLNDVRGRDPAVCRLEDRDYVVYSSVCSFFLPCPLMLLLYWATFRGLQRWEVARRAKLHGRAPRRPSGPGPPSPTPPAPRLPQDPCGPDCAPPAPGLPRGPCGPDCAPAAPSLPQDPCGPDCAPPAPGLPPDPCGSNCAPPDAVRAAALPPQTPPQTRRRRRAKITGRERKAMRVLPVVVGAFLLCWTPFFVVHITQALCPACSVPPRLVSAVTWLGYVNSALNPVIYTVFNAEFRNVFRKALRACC

melting point	Compound	Functional activity at D4 receptor (literature) [1]
172 to 175 °C	O=C(CCCN1CCC(c2c[nH]c3ccc(Cl)cc23)CC1)N1CCc2ccccc2C1 [Compound 8, 5-Chloro-3-{1-[4-(3,4-dihydro-1H-isoquinolin-2-yl)-4-oxobutan-1-yl]piperidin-4-yl}-1H-indole]	
	CC(C)Oc1cccnc1N(C)C1CCN(Cc2ccccc2)CC1 [Compound U-101958]	partial D4 receptor agonists
